What all share (assay type): tissue-based
Assay [1] addresses T1, Mu-type opioid receptor (Rattus norvegicus, UniProt P33535). Briefly: Ability to displace [3H][D-Ala2,MePhe4,Gly-ol5]enkephalin ([3H]DAGO) from mu opioid receptors in rat brain.
The target of assay [2] is T1, Mu-type opioid receptor. In words: Compound was evaluated for its binding affinity to mu opioid receptors in rat brain.
Assay [3] addresses T2, Delta-type opioid receptor (Rattus norvegicus, UniProt P33533). Briefly: Compound was evaluated for its binding affinity to Opioid receptor delta 1 in rat brain.
For assay [4], the target named is T2, Delta-type opioid receptor. In words: Ability to displace [3H][D-Ser2,Leu5]enkephalin-Thr ([3H]DSLET) from Opioid receptor delta 1 in rat brain.

Molecules are shown by their SMILES.

In general, IC50 refers to the concentration that inhibits the measured activity by half. The low end stands for greater potency in that assay, the high end for weaker potency in that assay. The EC50 is the concentration that produces a half-maximal response. Low readings indicate greater potency, high ones weaker potency.

T2 sequence (P33533 whole entry): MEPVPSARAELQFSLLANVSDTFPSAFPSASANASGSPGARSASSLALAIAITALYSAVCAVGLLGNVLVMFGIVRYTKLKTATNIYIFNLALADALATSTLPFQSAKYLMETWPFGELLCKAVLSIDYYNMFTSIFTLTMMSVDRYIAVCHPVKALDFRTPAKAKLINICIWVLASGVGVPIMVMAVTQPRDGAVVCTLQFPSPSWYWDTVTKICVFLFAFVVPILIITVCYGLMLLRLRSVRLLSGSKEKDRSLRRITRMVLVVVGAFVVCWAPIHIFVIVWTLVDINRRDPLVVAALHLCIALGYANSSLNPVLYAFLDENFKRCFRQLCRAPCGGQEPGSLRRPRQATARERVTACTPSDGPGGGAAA
T1 sequence (P33535 whole entry): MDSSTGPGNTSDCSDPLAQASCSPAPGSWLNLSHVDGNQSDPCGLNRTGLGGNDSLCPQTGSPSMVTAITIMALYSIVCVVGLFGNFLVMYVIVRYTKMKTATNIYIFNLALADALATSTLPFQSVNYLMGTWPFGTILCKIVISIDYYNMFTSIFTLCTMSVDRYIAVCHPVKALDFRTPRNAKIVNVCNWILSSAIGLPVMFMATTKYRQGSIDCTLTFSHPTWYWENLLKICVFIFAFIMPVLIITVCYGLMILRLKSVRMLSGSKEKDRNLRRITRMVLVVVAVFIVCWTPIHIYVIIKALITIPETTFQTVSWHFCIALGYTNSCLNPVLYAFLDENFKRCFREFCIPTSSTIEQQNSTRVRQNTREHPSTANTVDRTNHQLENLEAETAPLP

For `CN1CC[C@]23c4c5ccc(O)c4O[C@H]2[C@@H](O)C[C@H](SSc2ccc([N+](=O)[O-])cn2)C3[C@H]1C5` (stereo partly drawn), the concentration for half-maximal inhibition (IC50) at Mu-type opioid receptor [1] was 58.1 nM; in assay [4] it was 67.9 nM. The figures for the EC50 (at Mu-type opioid receptor [2]; in assay [3]) were 1700 nM and 1200 nM, respectively.

Turning to `CN1CC[C@]23c4c5ccc(O)c4O[C@H]2[C@H](SSc2ccc([N+](=O)[O-])cn2)CCC3C1C5` (stereo partly drawn), the results for the IC50 (at Mu-type opioid receptor [1]; in assay [4]) were 31.1 nM and 206 nM, respectively. The EC50 on Mu-type opioid receptor [2] is 58.1 nM; in assay [3], 402 nM.

Source of the values: ChEMBL document CHEMBL1128775, “Specific affinity labeling of opioid receptors in rat brain by S-activated sulfhydryldihydromorphine analogs” (Bioorg Med Chem Lett, 1995).
